{"source": "patent US7659298B2", "about": "“Pyrazole derivatives and use thereof as orexin receptor antagonists” (sanofi-aventis, priority 2003, dated 2010)", "key": {"[1]": {"target": "T1, human recombinant orexin-1 (hr-OX-1) receptor (Homo sapiens, UniProt O43613)", "T1 construct": "expressed in transfected cells; host or cells: CHO cells (CHO-hr-OX-1), purified plasma membrane fraction", "T1 sequence (O43613 1-425)": "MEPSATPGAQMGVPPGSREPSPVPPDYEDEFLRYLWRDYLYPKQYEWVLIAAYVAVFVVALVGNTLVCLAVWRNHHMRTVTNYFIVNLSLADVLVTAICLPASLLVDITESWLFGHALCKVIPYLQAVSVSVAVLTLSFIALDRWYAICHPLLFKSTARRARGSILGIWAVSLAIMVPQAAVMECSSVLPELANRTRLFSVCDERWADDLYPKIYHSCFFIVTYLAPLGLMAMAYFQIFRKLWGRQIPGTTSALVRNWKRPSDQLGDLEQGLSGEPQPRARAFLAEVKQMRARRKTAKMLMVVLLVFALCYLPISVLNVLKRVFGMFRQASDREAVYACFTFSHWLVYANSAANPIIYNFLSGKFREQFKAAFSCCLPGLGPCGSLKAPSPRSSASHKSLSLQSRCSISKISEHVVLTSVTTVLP", "assay": "hr-125I-orexin-A radioligand competition binding, orexin-1 receptor", "conditions": "read-out: Orex-1 IC50", "description": "(§1) In vitro radioligand binding assays were used for determination of the affinities of the compounds for both the orexin-1 and orexin-2 receptors.\n(§2) In the frame of hr-^125I-orexin-A radioligand competition (displacement) experiments a fixed concentration of hr-^125I-orexin-A is incubated with increasing concentrations of unlabeled test compound in the presence of highly purified plasmamembranes bearing either the human recombinant orexin-1 (hr-OX-1) or the human recombinant orexin-2 (hr-OX-2) receptors. Specific binding of hr-^125I-orexin-A to plasmamembranes is measured at each concentrations of the unlabeled compound and thus a competition curve is generated. The concentration of unlabeled compound displacing 50% of specific binding (IC50) is calculated. In case of competitive interaction the binding affinity constant of the unlabeled compound (KI) is calculated according to the Cheng-Prusoff equation ([…]. Affinity of unlabeled compound for the receptor is equal to 1/KI.\n(§3) Culturing the Chinese hamster ovarian cells expressing human recombinant orexin-1 or orexin-2 receptor proteins (CHO-hr-OX-1 or CHO-hr-OX-2 cells) was carried out in cell culture medium (MEM medium, supplemented with 40 mg/l prolin, 20 mg/l gentamycin, 300 mg/l geneticin, 10% dialysed fetal calf serum).\n(§4) Adherent cells were plated into Greiner flasks (175 cm^2). 4-6 days later culture medium was removed and cells were scarped in calcium- and magnesium-free phosphate buffered saline (PBS, 20 ml/flask). The cell suspension was centrifuged at 1,000 g for 5 minutes (4° C.). The resulting pellet was resuspended and homogenized with a teflon pestle (4° C.), then layered onto a discontinous sucrose gradient and centrifuged at 105,000 g. […]\n(§5) Serial dilution series were prepared from stock solutions (100% DMSO) with binding assay buffer in such a way that each samples contained a final concentration of 1% of DMSO in the receptor binding reaction mixture. […] The radioactivity remained on the filter was counted in a gamma counter (Wallac Automatic Gamma Counter 1470 Wizard)."}, "[2]": {"target": "T2, human recombinant orexin-2 (hr-OX-2) receptor (Homo sapiens, UniProt O43614)", "T2 construct": "expressed in transfected cells; host or cells: CHO cells (CHO-hr-OX-2), purified plasma membrane fraction", "T2 sequence (O43614 1-444)": "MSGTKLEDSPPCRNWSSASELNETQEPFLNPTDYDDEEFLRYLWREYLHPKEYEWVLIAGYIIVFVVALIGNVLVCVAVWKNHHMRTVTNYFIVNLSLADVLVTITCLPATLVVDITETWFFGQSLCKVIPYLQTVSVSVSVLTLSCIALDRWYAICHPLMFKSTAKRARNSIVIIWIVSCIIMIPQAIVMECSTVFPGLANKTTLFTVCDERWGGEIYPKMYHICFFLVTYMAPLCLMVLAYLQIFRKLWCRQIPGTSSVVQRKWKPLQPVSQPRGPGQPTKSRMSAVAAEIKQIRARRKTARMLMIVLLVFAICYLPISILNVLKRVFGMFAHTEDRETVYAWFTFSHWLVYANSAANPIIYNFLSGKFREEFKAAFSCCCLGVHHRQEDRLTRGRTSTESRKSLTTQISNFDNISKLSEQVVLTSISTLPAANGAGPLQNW", "assay": "hr-125I-orexin-A radioligand competition binding, orexin-2 receptor", "conditions": "read-out: Orex-2 IC50", "description": "as §1, §2, §3, §4, §5"}, "orexin-1 receptors": {"test_system": "orexin-1 receptors", "conditions": "cited from earlier work"}}, "note": "Where no end group is shown, it is not given here.", "data": [{"molecule": "Cn1nc(-c2ccccc2)c(CSc2ccccc2C(=O)Nc2ccc3ccccc3c2)c1Cl", "values": [{"measurement": "IC50", "setting": "[1]", "result": 33, "unit": "nM"}, {"measurement": "IC50", "setting": "[2]", "result": 156, "unit": "nM"}]}, {"molecule": "Cn1nc(-c2ccncc2)c(COc2ccccc2C(=O)Nc2cnc3ccccc3c2)c1Cl", "note": "[2-(5-Chloro-1-methyl-3-pyridin-4-yl-1H-pyrazol-4-ylmethoxy)-N-quinolin-3-ylbenzamide]", "values": [{"measurement": "IC50", "setting": "[1]", "result": 51, "unit": "nM"}, {"measurement": "IC50", "setting": "[2]", "result": 1100, "unit": "nM"}]}, {"molecule": "Cn1nc(-c2cccnc2)c(CCc2ccccc2C(=O)Nc2cnc3ccccc3c2)c1Cl", "note": "[2-[2-(5-Chloro-1-methyl-3-pyridin-3-yl-1H-pyrazol-4-yl)ethyl]-N-quinolin-3-ylbenzamide]", "values": [{"measurement": "IC50", "setting": "[1]", "result": 57, "unit": "nM"}, {"measurement": "IC50", "setting": "[2]", "result": 680, "unit": "nM"}]}, {"molecule": "Cn1nc(-c2ccccc2)c(COc2ccccc2C(=O)Nc2cnc3ccccc3c2)c1Cl", "note": "[Example 65, 2-(3-Phenyl-5-chloro-1-methyl-1H-pyrazol-4-ylmethoxy)-N-quinolin-3-ylbenzamide]", "values": [{"measurement": "melting point", "result": 170, "unit": "°C"}]}, {"molecule": "orexin A: \"Orexin A consists of 33 aminoacid residues with two intramolecular disulphide bridges\" (QPLPDCCRQKTCSCRLYELLHGAGNHAAGILTL; disulfide (positions not given here); ends not checked; UniProt O43612 34-66, looked up)", "values": [{"measurement": "fold more effective on the orexin-1 receptors compared to orexin B", "setting": "orexin-1 receptors", "result": "10-50 fold"}]}]}
